Assay results: US8158607B2, “Crystalline form of lamivudine” (Lupin Limited, priority 2006, dated 2012)

Tests used:
[1] = Bulk density and tap density of crystal forms; format: physicochemical
Description: The novel crystalline hemihydrate form (form III) of Lamivudine has better flow property and bulk density, which are important parameters for formulation (Table I). [table]

[2] = background, U.S. Pat. No. 5,905,082; cited from earlier work
[3] = Flow property (angle of repose); format: physicochemical; conditions: procedure of Lachman et al., page 317
[4] = Polymorphic stability when slurried in water; format: physicochemical; conditions: slurried in water at ambient temperature for 24 to 48 hours
Procedure: A suspension of the Lamivudine form-II (5.0 gm) in water (5.0 ml) was stirred at 25° C. for 48 hours. The suspension was cooled and stirred at 10° C. for one hour. The product was filtered and then dried under vacuum at 45° C. for 24 hours. Yield=4.5 gms
A suspension of the Lamivudine form-I (2.0 gm) in water (2.0 ml) was stirred at 25° C. for 24 hours. The suspension was cooled and stirred at 10° C. for one hour. The product was filtered and then dried under vacuum at 45° C. for 24 hours. Yield=1.6 gms

[5] = Storage stability at 40±2° C. RH 75±5%; format: physicochemical; conditions: stored at 40±2° C. RH 75±5%
[6] = Bioavailability; format: in vivo; conditions: compared with known forms
[7] = Polymorphic stability during milling; format: physicochemical
[8] = Tablet dissolution in 0.1 N HCl, paddle; format: physicochemical; conditions: combination tablet, 50 rpm, 900 ml

| Bulk Density [1] | Tap Density [1] | Flow Property (Angle of Repose) [3] | Change of crystal form when slurried in water [4] | Stability on storage [5] | Bioavailability [6] | Dissolution (%) ([8]; 5 minutes) | Dissolution (%) ([8]; 10 minutes) | Dissolution (%) ([8]; 20 minutes) | Dissolution (%) ([8]; 30 minutes) | Dissolution (%) ([8]; 40 minutes) | Compound | Change of crystal form during milling and formulation operation [2] | Change in crystal structure during milling [7] |
| --- | --- | --- | --- | --- | --- | --- | --- | --- | --- | --- | --- | --- | --- |
| 0.46 gm/cc | 0.60 gm/cc | 33.66° | get converted to Form III |  |  |  |  |  |  |  | Nc1cc[n+](C2CSC(CO)O2)c(=O)[nH]1 (stereo not drawn) [Form I, (2R-cis)-4-amino-1-[2-(hydroxymethyl)-1,3-oxathiolan-5-yl]-2(1H)-pyrimidinone] | converts to form II |  |
| 0.38 gm/cc | 0.55 gm/cc | 32.00° | get converted to Form III |  |  |  |  |  |  |  | Nc1cc[n+](C2CSC(CO)O2)c(=O)[nH]1 (stereo not drawn) [Form II, (2R-cis)-4-amino-1-[2-(hydroxymethyl)-1,3-oxathiolan-5-yl]-2(1H)-pyrimidinone] |  |  |
| 0.64 gm/cc | 0.83 gm/cc | 32.00° |  | stable for more than three months | comparable bioavailability |  |  |  |  |  | Nc1cc[n+](C2CSC(CO)O2)c(=O)[nH]1 (stereo not drawn) [Form III, (2R-cis)-4-amino-1-[2-(hydroxymethyl)-1,3-oxathiolan-5-yl]-2(1H)-pyrimidinone] |  | does not undergo any change in crystal structure during milling |
|  |  |  |  |  |  | 80.9% | 86.2% | 92.0% | 96.0% | 96.7% | Nc1cc[n+](C2CSC(CO)O2)c(=O)[nH]1 (stereo not drawn) [Lamivudine, (2R-cis)-4-amino-1-[2-(hydroxymethyl)-1,3-oxathiolan-5-yl]-2(1H)-pyrimidinone] |  |  |
|  |  |  |  |  |  | 81.1% | 87.8% | 95.2% | 100.4% | 101.5% | Cc1cn([C@H]2C[C@H](N=[N+]=[N-])[C@@H](CO)O2)c(=O)[nH]c1=O [Zidovudine] |  |  |
